Data taken from ChEMBL document CHEMBL4002628, “Benzenesulphonamide inhibitors of the cytolytic protein perforin” (Bioorg Med Chem Lett, 2017).
Active and inactive are the calls of the source. No cut-off for these calls is given here.

Key:
[1] = target: T1, Perforin-1 (Homo sapiens) (UniProt P14222); assay: Inhibition of recombinant perforin (unknown origin) assessed as decrease in lysis of 51Cr-labelled human Jurkat cells by measuring 51Cr release at 20 uM preincubated for 30 mins followed by cell line addition measured after 4 hrs in presence of 10% mouse serum by gamma counting method relative to control
T1 sequence (whole entry): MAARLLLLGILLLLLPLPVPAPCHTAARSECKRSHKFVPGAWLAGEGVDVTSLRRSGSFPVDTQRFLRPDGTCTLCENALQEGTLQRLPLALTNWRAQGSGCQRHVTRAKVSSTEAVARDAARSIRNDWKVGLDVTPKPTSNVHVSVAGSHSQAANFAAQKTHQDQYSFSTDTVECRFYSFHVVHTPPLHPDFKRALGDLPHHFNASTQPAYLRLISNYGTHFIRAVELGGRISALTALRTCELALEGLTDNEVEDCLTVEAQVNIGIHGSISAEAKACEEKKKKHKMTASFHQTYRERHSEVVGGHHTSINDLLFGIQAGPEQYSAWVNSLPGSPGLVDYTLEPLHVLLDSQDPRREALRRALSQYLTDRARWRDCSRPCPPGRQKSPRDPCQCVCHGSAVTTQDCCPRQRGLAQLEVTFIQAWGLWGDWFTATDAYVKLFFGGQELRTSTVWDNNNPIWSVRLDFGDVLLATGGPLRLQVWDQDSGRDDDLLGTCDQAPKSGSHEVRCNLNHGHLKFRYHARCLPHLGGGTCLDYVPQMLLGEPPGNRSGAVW

[2] = Inhibition of N-terminal His-tagged recombinant human p85alpha expressed in baculovirus infected insect Sf21 cells/recombinant wild type mouse p110alpha using phosphatidylinositol as substrate in presence of [33P]-ATP

O=C1Cc2cc(-c3ccc(-c4cncc(NS(=O)(=O)c5ccc(F)cc5F)c4)s3)ccc2N1
inhibition [1]: Active

O=C1NCc2ccc(-c3ccc(-c4cncc(NS(=O)(=O)c5ccc(F)cc5F)c4)s3)cc21
inhibition [1]: Active

CN1Cc2cc(-c3ccc(-c4cncc(NS(=O)(=O)c5ccc(F)cc5F)c4)s3)ccc2C1=O
inhibition [1]: Active
IC50 [2]: > 6.25 µM

O=C1NCc2cc(-c3ccc(-c4cncc(NS(=O)(=O)c5ccc(F)cc5F)c4)s3)ccc21
inhibition [1]: Active
